≈ marks a conversion by molar mass, not a printed value. Entries after “also recorded” stand apart in the source; their conditions may differ.
Assays:
[1] = test system: Staphylococcus aureus ATCC 25923; assay: Disc diffusion, Staphylococcus aureus; details: for zone of inhibition at 1000 µg/mL: ATCC25923, 24 h, read-out: inhibitory zone diameter, B2 Staphylococcus aureus
hCA I = hCA I (Homo sapiens, UniProt P00915); assay: hCA I inhibition assay (esterase activity); type: biochemical; details: human erythrocyte hCA I
Chain of hCA I (P00915 whole entry): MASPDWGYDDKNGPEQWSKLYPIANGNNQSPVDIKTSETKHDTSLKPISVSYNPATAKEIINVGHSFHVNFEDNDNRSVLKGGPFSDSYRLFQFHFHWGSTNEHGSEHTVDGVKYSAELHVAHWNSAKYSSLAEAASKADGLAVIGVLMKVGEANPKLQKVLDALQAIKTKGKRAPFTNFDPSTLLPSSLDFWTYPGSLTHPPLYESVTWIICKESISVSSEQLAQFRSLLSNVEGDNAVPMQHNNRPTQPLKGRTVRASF

[2] = Fe3+ reducing power assay (FRAP method); details: absorbance at 700 nm, 30 μg/mL concentration
Method: The ability of the carbamate compounds to reduce was evaluated using the FRAP assay. Various concentrations of the compounds were dissolved in deionized water to a final volume of 0.2 mL in test tubes. To each tube, 500 µL of potassium […] [K3Fe(CN)6] and 500 µL of phosphate buffer (0.2 M, pH 6.6) were added. The mixture was vortexed and incubated for 20 min at 50°C. Then, 500 µL of 10% trichloroacetic acid was added, and 500 µL of the upper layer of the solution was mixed with 100 µL of 0.1% FeCl3 and 500 µL of distilled water. The absorbance of the reducing effect was recorded using a spectrophotometer at 700 nm.

[3] = test system: Klebsiella pneumoniae ATCC 13883; assay: Disc diffusion, Klebsiella pneumoniae; details: for zone of inhibition at 1000 µg/mL: ATCC13883, 24 h, read-out: inhibitory zone diameter, B4 Klebsiella pneumonia
[4] = ABTS radical cation scavenging assay; details: for IC50 ABTS method: ABTS radical scavenging; for antioxidant activity (in words): ABTS scavenging and Fe reduction, compared to BHT, BHA, α-tocopherol; for ABTS radical scavenging (λ734): absorbance at 734 nm, 30 μg/mL concentration
Method: Antioxidant capacity was determined using the ABTS radical cation scavenging method ABTS and potassium persulfate (K2S2O8) were mixed in equal proportions and incubated at room temperature to generate the radical cation. The resulting solution was diluted with ethanol, and the absorbance of the control was adjusted to 0.928 ± 0.025 at 734 nm. Different concentrations of the compounds were prepared, added to test tubes, and adjusted with 0.2 mL of ethanol. To each tube, 0.8 mL of the ABTS radical solution was added. After incubation for 30 min, the absorbance of the remaining ABTS^•+ was measured at 734 nm.

L929 cells = assay: Cytotoxicity, WST-1 assay in L929 cells; type: cell-based; details: WST-1, 24 h exposure, 6.25-500 μg/ml
[5] = test system: Bacillus subtilis ATCC 6633; assay: Disc diffusion, Bacillus subtilis; details: for zone of inhibition at 1000 µg/mL: ATCC6633, 24 h, read-out: inhibitory zone diameter, B1 Bacillus subtilis
hCA II = hCA II (Homo sapiens, UniProt P00918); assay: hCA II inhibition assay (esterase activity); type: biochemical; details: for IC50 / Ki: human erythrocyte hCA II, esterase activity
A549 cell line = assay: Anticancer activity, WST-1 assay in A549 cells; details: WST-1, 24 h exposure, 6.25-500 μg/ml
[6] = test system: Escherichia coli ATCC 43895; assay: Disc diffusion, Escherichia coli; type: cell-based; details: read-out: inhibitory zone diameter, B3 Escherichia coli; for zone of inhibition at 1000 µg/mL: ATCC43895, compounds at 1000 μg/mL, disc diameter 5 mm, 24 h
Method: All tests were conducted in triplicate.

[7] = test system: Yarrowia lipolytica ATCC 20460; assay: Disc diffusion, Yarrowia lipolytica
[8] = test system: Candida albicans ATCC 10231; assay: Disc diffusion, Candida albicans
[9] = positive control 10 µg disc^−1, disc diameter 5 mm

Structure (SMILES)	zone of inhibition at 1000 µg/mL [1] [mm]	IC50 (hCA I) [nM]	Ki (hCA I) [nM]	Fe^3+-Fe^2+ reducing (λ700) [2]	zone of inhibition at 1000 µg/mL [3] [mm]	IC50 ABTS method [4] [µg/mL]	ABTS radical scavenging (λ734) [4]	zone of inhibition at 1000 µg/mL [5] [mm]	IC50 (hCA II) [nM]	zone of inhibition at 1000 µg/mL [6] [mm]	Ki (hCA II) [nM]	further results
CCOS(=O)(=O)N1C(=O)c2ccccc2C1(O)c1ccccc1 (centres unmarked) [2a, Ethyl1‐hydroxy‐3‐oxo‐1‐phenylisoindoline‐2‐sulfonate]	7	24.3 ± 1.98	22 ± 9.21	1.168 ± 0.058	8	231.00	0.835 ± 0.024	7	28.84 ± 0.151	9		antioxidant activity (in words) [4]: lowest activity; cell proliferation of L929 cells compared with control group (in words) (L929 cells): increased cell proliferation; anticancer activity against A549 cells (in words) (A549 cell line): dose‐dependent anticancer activity; also recorded: demonstrated inhibitory effects at high doses
CCCOS(=O)(=O)N1C(=O)c2ccccc2C1(O)c1ccccc1 (centres unmarked) [2b, Propyl1‐hydroxy‐3‐oxo‐1‐phenylisoindoline‐2‐sulfonate]	8	42 ± 1.35	49.5 ± 12.1	1.260 ± 0.079	10	173.25	0.802 ± 0.072	11	231 ± 1	10	160 ± 46.6	increase of activity on hCA II with n-propanol (2b) instead of n-butanol (2d) (hCA II; 2b compared with 2d, Ki hCA II): 1.56 fold
CC(C)OS(=O)(=O)N1C(=O)c2ccccc2C1(O)c1ccccc1 (centres unmarked) [2c, Isopropyl1‐hydroxy‐3‐oxo‐1‐phenylisoindoline‐2‐sulfonate]	19	12.6 ± 0.37	11.5 ± 4.18	1.323 ± 0.133	17	40.76	0.549 ± 0.049	16	13.02 ± 0.041	18	9.32 ± 2.35	cell proliferation of L929 cells compared with control group (in words) (L929 cells): increased cell proliferation
CCCCOS(=O)(=O)N1C(=O)c2ccccc2C1(O)c1ccccc1 (centres unmarked) [2d, Butyl1‐hydroxy‐3‐oxo‐1‐phenylisoindoline‐2‐sulfonate]	14	75.7 ± 1.21	87.1 ± 35.2	1.278 ± 0.059	12	99.00	0.719 ± 0.032	12	86.37 ± 0.338	13	251 ± 37.1	cell proliferation of L929 cells compared with control group (in words) (L929 cells): increased cell proliferation
CC(C)COS(=O)(=O)N1C(=O)c2ccccc2C1(O)c1ccccc1 (centres unmarked) [2e, Isobutyl1‐hydroxy‐3‐oxo‐1‐phenylisoindoline‐2‐sulfonate]	13	11.8 ± 0.132	33.3 ± 15.1	1.316 ± 0.023	11	53.30	0.624 ± 0.040	10	23.85 ± 0.152	14	37.5 ± 14.7	
O=C1c2ccccc2C(O)(c2ccccc2)N1S(=O)(=O)OC1CCCCC1 (centres unmarked) [2f, Cyclohexyl1‐hydroxy‐3‐oxo‐1‐phenylisoindoline‐2‐sulfonate]	24	11.2 ± 0.291	16.1 ± 4.14	1.485 ± 0.156	22	27.72	0.426 ± 0.132	20	27.8 ± 0.17	25	14.9 ± 3.25	antioxidant activity (in words) [4]: highest antioxidant activity; zone of inhibition at 1000 µg/mL ([7]; Yarrowia lipolytica, ATCC20460, 24 h, read-out: inhibitory zone diameter, F2 Yarrowia lipolytica): 16 mm; zone of inhibition at 1000 µg/mL ([8]; Candida albicans, ATCC10231, 24 h, read-out: inhibitory zone diameter, F1 Candida albicans): 19 mm
CC1(C)S[C@@H]2[C@H](NC(=O)[C@H](N)c3ccccc3)C(=O)N2[C@H]1C(=O)O [Ampicillin, reference compound]												zone of inhibition at 10 µg/disc ([1]; ATCC25923, read-out: inhibitory zone diameter, B2 Staphylococcus aureus): 21 mm; zone of inhibition at 10 µg/disc ([3]; ATCC13883, read-out: inhibitory zone diameter, B4 Klebsiella pneumonia): 19 mm; zone of inhibition at 10 µg/disc ([5]; ATCC6633, read-out: inhibitory zone diameter, B1 Bacillus subtilis): 18 mm; zone of inhibition at 10 µg/disc ([6]; ATCC43895, positive control 10 µg disc^−1, disc diameter 5 mm): 20 mm
COc1ccc(O)c(C(C)(C)C)c1 [BHA, reference compound]				2.625 ± 0.241		12.83 (≈ 71.2 µM)	0.201 ± 0.040					
Cc1cc(C(C)(C)C)c(O)c(C(C)(C)C)c1 [BHT, reference compound]				2.510 ± 0.111		16.11 (≈ 73.1 µM)	0.293 ± 0.094					
C[C@@H]1[C@H](O)[C@@H](C)/C=C/C=C/CC/C=C/C=C/C=C/C=C/C(O[C@H]2O[C@H](C)[C@@H](O)[C@H](N)[C@@H]2O)CC2O[C@](O)(CC(O)C(O)CCC(O)CC(O)CC(O)CC(=O)O[C@H]1C)CC(O)C2C(=O)O (some centres unmarked) [Nystatin, reference compound]												inhibitory zone diameter, F2 Yarrowia lipolytica [7, 9]: 15 mm; inhibitory zone diameter, F1 Candida albicans [8, 9]: 18 mm
Cc1c(C)c2c(c(C)c1O)CC[C@@](C)(CCC[C@H](C)CCC[C@H](C)CCCC(C)C)O2 [α‐Tokoferol, α‐tocopherol, reference compound]				1.465 ± 0.284		18.23 (≈ 42.3 µM)	0.319 ± 0.101					

Source: PMC11995831, “Synthesis of Novel Isoindolinones: Carbonic Anhydrase Inhibition Profiles, Antioxidant Potential, Antimicrobial Effect, Cytotoxicity and Anticancer Activity” (Journal of Biochemical and Molecular Toxicology, 2025)
